The source of these data is US20150087627A1, “COMBINATION OF KINASE INHIBITORS AND USES THEREOF” (Intellikine LLC, priority 2011, published 2015).

In general, IC50 refers to the concentration that gives 50% inhibition.

Holding throughout (type): biochemical
One assay deals with T1, PI3K α (p110α/p85α) (Homo sapiens, UniProt P42336).
T1 construct: purchased Upstate / Millipore Corporation
Kind of assay: PI 3-Kinase (human) HTRF assay, PI3K α. Conditions: read-out: PI3K α IC50. On the technique in general: TR-FRET usually uses a lanthanide donor and a delayed reading to cut background.

Another assay deals with T2, PI3K β (p110β/p85α) (Homo sapiens, UniProt P42338).
T2 construct: purchased Upstate / Millipore Corporation
In words: PI 3-Kinase (human) HTRF assay, PI3K β. The following applies: read-out: PI3K β IC50.

A further assay deals with T3, PI3K γ (p110γ) (Homo sapiens, UniProt P48736).
T3 construct: purchased Upstate / Millipore Corporation
In words: PI 3-Kinase (human) HTRF assay, PI3K γ. Conditions: read-out: PI3K γ IC50.

For another assay, the target named is T4, PI3K δ (Homo sapiens, UniProt O00329).
T4 construct: purchased Upstate / Millipore Corporation
Kind of assay: PI 3-Kinase (human) HTRF assay, PI3K δ. Conditions: read-out: PI3K δ IC50.

Where two headings read alike, the source gives them in different places.

T2 sequence (P42338 whole entry): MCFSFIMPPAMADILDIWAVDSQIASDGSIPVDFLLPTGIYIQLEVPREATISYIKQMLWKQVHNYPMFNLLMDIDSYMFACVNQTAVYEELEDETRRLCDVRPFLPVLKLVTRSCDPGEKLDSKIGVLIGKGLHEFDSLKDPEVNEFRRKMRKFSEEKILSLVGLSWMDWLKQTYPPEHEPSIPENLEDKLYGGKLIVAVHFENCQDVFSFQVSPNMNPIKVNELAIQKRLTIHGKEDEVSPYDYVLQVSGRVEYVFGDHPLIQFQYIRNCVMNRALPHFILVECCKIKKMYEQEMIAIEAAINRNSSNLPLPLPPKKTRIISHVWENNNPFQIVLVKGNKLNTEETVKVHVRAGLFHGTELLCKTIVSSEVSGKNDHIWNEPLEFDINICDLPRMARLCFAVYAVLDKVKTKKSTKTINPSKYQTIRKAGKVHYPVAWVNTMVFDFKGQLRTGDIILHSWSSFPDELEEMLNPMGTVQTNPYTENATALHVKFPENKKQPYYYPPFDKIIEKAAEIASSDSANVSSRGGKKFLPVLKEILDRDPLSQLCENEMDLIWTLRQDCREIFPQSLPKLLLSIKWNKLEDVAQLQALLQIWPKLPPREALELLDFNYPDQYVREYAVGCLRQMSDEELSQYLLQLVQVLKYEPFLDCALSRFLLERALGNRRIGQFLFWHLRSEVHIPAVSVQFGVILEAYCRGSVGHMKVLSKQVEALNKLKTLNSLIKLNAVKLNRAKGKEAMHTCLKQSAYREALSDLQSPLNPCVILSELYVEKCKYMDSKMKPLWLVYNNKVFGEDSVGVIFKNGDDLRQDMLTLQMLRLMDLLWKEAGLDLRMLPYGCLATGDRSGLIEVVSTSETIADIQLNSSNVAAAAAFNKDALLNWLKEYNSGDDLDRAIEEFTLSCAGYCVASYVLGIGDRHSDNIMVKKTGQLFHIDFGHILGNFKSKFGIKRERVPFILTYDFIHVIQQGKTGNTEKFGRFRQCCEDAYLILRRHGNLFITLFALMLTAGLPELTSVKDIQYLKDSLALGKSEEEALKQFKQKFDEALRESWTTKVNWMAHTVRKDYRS
T2 sequence (P27986 whole entry partner): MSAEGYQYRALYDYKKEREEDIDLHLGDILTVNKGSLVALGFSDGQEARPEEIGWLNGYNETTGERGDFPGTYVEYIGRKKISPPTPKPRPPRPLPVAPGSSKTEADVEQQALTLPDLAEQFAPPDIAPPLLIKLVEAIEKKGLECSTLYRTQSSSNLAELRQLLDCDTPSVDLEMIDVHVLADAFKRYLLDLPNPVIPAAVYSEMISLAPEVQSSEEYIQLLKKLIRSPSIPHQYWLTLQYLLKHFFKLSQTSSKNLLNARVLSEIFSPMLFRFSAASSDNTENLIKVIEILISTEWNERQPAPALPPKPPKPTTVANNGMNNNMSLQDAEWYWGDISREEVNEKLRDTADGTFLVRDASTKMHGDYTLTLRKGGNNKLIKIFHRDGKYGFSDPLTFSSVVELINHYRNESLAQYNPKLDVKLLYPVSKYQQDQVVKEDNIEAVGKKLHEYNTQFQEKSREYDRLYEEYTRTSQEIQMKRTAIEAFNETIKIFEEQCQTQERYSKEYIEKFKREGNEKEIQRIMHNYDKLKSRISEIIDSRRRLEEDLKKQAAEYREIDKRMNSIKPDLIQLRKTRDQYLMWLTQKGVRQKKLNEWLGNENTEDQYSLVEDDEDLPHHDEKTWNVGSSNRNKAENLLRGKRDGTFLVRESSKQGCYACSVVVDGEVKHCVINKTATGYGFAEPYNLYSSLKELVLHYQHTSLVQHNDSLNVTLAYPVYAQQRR
T4 sequence (O00329 whole entry): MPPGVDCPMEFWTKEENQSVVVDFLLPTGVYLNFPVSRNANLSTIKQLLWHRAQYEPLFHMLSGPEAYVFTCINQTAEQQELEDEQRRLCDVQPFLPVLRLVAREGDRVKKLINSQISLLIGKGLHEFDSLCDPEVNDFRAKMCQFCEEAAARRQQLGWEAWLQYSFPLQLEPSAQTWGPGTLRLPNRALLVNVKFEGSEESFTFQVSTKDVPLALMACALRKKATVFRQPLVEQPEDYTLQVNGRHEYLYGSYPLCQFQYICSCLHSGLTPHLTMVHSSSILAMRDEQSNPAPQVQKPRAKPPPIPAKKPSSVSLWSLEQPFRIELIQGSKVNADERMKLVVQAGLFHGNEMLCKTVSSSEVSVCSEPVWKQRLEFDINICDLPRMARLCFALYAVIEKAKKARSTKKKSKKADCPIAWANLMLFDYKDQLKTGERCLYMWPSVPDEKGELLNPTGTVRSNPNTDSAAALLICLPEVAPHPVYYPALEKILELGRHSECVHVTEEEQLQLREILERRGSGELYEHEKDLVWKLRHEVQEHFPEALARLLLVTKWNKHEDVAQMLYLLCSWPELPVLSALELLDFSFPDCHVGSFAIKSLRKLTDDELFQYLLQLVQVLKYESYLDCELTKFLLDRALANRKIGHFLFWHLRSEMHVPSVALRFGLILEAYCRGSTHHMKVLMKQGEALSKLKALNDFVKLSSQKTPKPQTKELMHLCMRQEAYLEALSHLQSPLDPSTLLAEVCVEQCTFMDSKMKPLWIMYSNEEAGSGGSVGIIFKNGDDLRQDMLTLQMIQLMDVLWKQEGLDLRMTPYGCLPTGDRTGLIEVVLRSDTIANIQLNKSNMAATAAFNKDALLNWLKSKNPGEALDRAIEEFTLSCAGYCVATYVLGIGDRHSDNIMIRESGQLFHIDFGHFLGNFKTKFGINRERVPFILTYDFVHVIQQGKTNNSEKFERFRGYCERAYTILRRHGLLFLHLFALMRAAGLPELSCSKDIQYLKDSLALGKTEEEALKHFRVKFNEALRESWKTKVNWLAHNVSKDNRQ
T4 sequence (P27986 whole entry partner): as the sequence (P27986 whole entry partner) above
T3 sequence (P48736 whole entry): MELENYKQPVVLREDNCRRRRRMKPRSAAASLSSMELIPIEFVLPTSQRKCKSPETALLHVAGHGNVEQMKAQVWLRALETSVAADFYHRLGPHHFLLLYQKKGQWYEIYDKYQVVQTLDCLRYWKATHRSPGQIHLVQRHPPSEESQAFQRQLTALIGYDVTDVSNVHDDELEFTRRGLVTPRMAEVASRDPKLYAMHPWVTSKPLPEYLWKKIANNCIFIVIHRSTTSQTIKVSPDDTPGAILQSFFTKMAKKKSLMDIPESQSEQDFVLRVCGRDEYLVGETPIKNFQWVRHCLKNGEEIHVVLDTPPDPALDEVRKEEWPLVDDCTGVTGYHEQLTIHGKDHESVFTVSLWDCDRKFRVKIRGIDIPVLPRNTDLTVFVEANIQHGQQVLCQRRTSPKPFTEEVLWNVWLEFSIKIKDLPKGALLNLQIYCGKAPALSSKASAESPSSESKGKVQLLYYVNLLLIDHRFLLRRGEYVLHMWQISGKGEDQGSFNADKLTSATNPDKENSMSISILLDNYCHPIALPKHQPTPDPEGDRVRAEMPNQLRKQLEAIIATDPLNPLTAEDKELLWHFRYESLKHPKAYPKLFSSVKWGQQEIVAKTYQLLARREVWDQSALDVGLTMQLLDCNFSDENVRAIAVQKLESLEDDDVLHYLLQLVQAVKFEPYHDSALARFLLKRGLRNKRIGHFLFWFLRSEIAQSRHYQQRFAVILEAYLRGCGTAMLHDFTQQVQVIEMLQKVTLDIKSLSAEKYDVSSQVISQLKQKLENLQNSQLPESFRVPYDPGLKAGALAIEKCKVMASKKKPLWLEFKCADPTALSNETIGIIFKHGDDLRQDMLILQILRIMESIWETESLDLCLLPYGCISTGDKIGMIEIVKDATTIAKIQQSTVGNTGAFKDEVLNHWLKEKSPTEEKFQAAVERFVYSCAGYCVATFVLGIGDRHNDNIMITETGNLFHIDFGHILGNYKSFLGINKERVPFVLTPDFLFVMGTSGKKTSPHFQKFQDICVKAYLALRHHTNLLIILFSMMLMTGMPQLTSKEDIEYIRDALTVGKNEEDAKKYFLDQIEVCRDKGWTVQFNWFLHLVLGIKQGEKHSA
T1 sequence (P42336 whole entry): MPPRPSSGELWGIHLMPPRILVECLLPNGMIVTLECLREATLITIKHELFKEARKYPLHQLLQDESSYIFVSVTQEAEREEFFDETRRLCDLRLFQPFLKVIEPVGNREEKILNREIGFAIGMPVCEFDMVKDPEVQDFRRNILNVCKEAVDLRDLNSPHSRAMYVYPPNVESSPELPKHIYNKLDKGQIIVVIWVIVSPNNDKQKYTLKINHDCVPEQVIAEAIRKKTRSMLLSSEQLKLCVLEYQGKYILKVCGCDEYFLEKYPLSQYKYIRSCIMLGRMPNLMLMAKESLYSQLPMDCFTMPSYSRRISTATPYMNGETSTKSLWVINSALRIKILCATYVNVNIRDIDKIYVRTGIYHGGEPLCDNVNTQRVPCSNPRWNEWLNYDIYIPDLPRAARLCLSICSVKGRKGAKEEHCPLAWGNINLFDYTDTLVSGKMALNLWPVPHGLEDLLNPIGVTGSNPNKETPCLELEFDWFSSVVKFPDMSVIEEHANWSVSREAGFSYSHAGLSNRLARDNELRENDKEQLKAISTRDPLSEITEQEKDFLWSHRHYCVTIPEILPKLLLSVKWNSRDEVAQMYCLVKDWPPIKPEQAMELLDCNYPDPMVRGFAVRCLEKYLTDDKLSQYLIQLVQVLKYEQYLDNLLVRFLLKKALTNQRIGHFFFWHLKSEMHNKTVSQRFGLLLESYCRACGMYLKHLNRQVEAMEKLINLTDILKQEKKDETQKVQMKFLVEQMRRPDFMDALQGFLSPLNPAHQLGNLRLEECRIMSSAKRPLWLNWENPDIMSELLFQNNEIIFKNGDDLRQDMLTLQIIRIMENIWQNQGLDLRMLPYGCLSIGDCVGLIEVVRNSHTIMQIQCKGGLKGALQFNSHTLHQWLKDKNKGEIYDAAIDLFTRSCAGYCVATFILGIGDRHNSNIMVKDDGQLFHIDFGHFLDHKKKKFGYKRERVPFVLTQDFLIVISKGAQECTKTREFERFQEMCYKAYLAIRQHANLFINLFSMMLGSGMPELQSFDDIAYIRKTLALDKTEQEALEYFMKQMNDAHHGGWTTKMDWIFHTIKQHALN
T1 sequence (P27986 whole entry partner): as the sequence (P27986 whole entry partner) above
Experimental for PI3K γ (p110γ): (§1) Briefly, the assay is a time resolved FRET assay that indirectly measures PIP3 product formed by the activity of a PI3-K. The kinase reaction is performed in a microtiter plate (e.g., a 384 well microtiter plate). The total reaction volume is approximately 20 ul per well. In the first step, each well receives 2 ul of test compound in 20% dimethylsulphoxide resulting in a 2% DMSO final concentration. […] The plate is sealed and incubated for 15 minutes at room temperature. […] The plate is sealed and incubated for 1 hour at room temperature. The reaction is stopped by adding 5 ul of Stop Solution per well and then 5 ul of Detection Mix is added per well. The plate is sealed, incubated for 1 hour at room temperature, and then read on an appropriate plate reader. Data is analyzed and IC50s are generated using GraphPad Prism 5.
Experimental for PI3K δ: as §1

As for `Nc1nc2cc(-c3ccc4ncc(C(=O)N5CC(O)C5)n4c3)ccc2o1` [Compound 200], the IC50 at PI3K α (p110α/p85α) is under 0.1 µM; on PI3K β (p110β/p85α) it was under 10 µM; on PI3K γ (p110γ), under 0.1 µM; on PI3K δ, under 10 µM.
Regarding `CC(C)N1CCC(Nc2ncnc3ccc(-c4ccc5oc(N)nc5c4)cc23)CC1` [Compound 101], the IC50 on PI3K α (p110α/p85α) is under 0.1 µM; at PI3K β (p110β/p85α), under 10 µM; on PI3K γ (p110γ) it was under 10 µM; at PI3K δ, under 1 µM.
Take `Cc1nc2ccc(-c3ccc4oc(N)nc4c3)cn2c1C(=O)N1CCN(C)CC1` [Compound 91]: the IC50 at PI3K α (p110α/p85α), on PI3K β (p110β/p85α), on PI3K γ (p110γ) and on PI3K δ was over 10 µM each time.
Take `Cc1nc(NC(=O)N2CCC[C@H]2C(N)=O)sc1-c1ccc2oc(N)nc2c1` [Compound 311]: the IC50 was under 1 µM on PI3K α (p110α/p85α), over 10 µM at PI3K β (p110β/p85α), over 10 µM at PI3K γ (p110γ) and over 10 µM at PI3K δ.
Turning to `Nc1nc2cc(-c3cn4c(-c5ccncc5)cnc4cn3)ccc2o1` [Compound 68], the IC50 on PI3K α (p110α/p85α) is under 0.1 µM; on PI3K β (p110β/p85α), under 10 µM; on PI3K γ (p110γ) it was under 1 µM; on PI3K δ it was under 10 µM.
In the case of `Nc1nsc2cc(-c3ccc4ncc(C(=O)N5CCOCC5)n4c3)ccc12` [Compound 489], the IC50 on PI3K α (p110α/p85α) was under 10 µM; at PI3K β (p110β/p85α), over 10 µM; at PI3K γ (p110γ) it was over 10 µM; at PI3K δ it was over 10 µM.
Turning to `CC(=O)Nc1nc2cc(-c3ccc4oc(N)nc4c3)ccc2s1` [Compound 250], the IC50 at PI3K α (p110α/p85α) is over 10 µM; on PI3K β (p110β/p85α), over 10 µM; at PI3K γ (p110γ), under 0.1 µM; on PI3K δ, over 10 µM.
Consider `CN1CCN(c2nc3cc(-c4ccc5oc(N)nc5c4)ccc3c(=O)n2C)CC1` [Compound 79], for which the IC50 at PI3K α (p110α/p85α) is under 10 µM; at PI3K β (p110β/p85α) it was over 10 µM; at PI3K γ (p110γ) it was over 10 µM; at PI3K δ, over 10 µM.
With `Cc1c(-c2ccc3oc(N)nc3c2)ccc2ncc(N3CCN[C@@H](C)C3)nc12` [Compound 374], the IC50 is under 1 µM on PI3K α (p110α/p85α), under 0.1 µM on PI3K β (p110β/p85α), over 10 µM at PI3K γ (p110γ) and under 10 µM on PI3K δ.
As to `Cc1nccn1C1CCN(c2cnc3ccc(-c4ccc5oc(N)nc5c4)cc3n2)CC1` [Compound 344], the IC50 at PI3K α (p110α/p85α) is under 0.1 µM; on PI3K β (p110β/p85α) it was under 10 µM; at PI3K γ (p110γ), under 10 µM; at PI3K δ, under 1 µM.
Consider `CNS(=O)(=O)c1cncc(-c2ccc3ncc(C(=O)N4CCOCC4)n3c2)c1` [Compound 450], for which the IC50 was under 10 µM on PI3K α (p110α/p85α), over 10 µM at PI3K β (p110β/p85α), over 10 µM at PI3K γ (p110γ) and over 10 µM on PI3K δ.
As to `Nc1nc2cc(-c3ccc4ncc(C(=O)N(CCO)CCO)n4c3)ccc2o1` [Compound 316], the IC50 at PI3K α (p110α/p85α) was under 1 µM; on PI3K β (p110β/p85α) it was under 10 µM; at PI3K γ (p110γ) it was under 10 µM; on PI3K δ, over 10 µM.
Turning to `CC(=O)Nc1nc2cc(-c3ccc4nc(N)oc4c3)ccc2s1` [Compound 251], the IC50 on PI3K α (p110α/p85α), at PI3K β (p110β/p85α), on PI3K γ (p110γ) and at PI3K δ was under 0.1 µM each time.
On to `CC(C)N1CCC(n2cnc3ccc(-c4cnc(Cl)c(NS(C)(=O)=O)c4)cc3c2=O)CC1` [Compound 523], for which the IC50 on PI3K α (p110α/p85α) is under 0.1 µM; on PI3K β (p110β/p85α) it was under 1 µM; on PI3K γ (p110γ), under 0.1 µM; at PI3K δ, under 0.1 µM.
Turning to `CN1CCC(Nc2ncnc3ccc(-c4ccc5oc(N)nc5c4)nc23)CC1` [Compound 212], the IC50 was under 0.1 µM at PI3K α (p110α/p85α), under 1 µM on PI3K β (p110β/p85α), under 1 µM at PI3K γ (p110γ) and under 1 µM at PI3K δ.
Turning to `Cc1cc(-c2ccc3nc(N)oc3c2)cn2c(C(=O)N3CCOCC3)cnc12` [Compound 449], the IC50 on PI3K α (p110α/p85α) was under 1 µM; at PI3K β (p110β/p85α), under 1 µM; at PI3K γ (p110γ), under 0.1 µM; at PI3K δ it was over 10 µM.
As for `Nc1nc2cc(-c3ccc4ncc(N5CC(N6CCS(=O)(=O)CC6)C5)nc4c3)ccc2o1` [Compound 334], the 50% inhibitory concentration (IC50) is under 0.1 µM on PI3K α (p110α/p85α), under 10 µM at PI3K β (p110β/p85α), under 10 µM on PI3K γ (p110γ) and under 10 µM on PI3K δ.
With `Nc1nc2cc(-c3ccc4ncc(C(=O)N5CC(N6CC[C@@H](O)C6)C5)n4c3)ccc2o1` [Compound 470], the results for the IC50 at PI3K α (p110α/p85α), on PI3K β (p110β/p85α) and at PI3K γ (p110γ) were under 0.1 µM, under 10 µM and under 1 µM, respectively.
`C[C@H]1CN(C2CN(c3cnc4ccc(-c5ccc6oc(N)nc6c5)nc4n3)C2)CCN1C` [Compound 572]: the IC50 at PI3K α (p110α/p85α) (Table 4 (PI3K α inhibitors)) is under 0.1 µM; on PI3K β (p110β/p85α) (Table 4 (PI3K α inhibitors)), over 10 µM; on PI3K γ (p110γ) (Table 4 (PI3K α inhibitors)) it was over 10 µM.
As to `C[C@@H]1CN(c2cnc3ccc(-c4ccc5oc(N)nc5c4)nc3n2)CCN1` [Compound 578], the IC50 is under 0.1 µM on PI3K α (p110α/p85α) (Table 4 (PI3K α inhibitors)), under 0.1 µM at PI3K β (p110β/p85α) (Table 4 (PI3K α inhibitors)) and under 1 µM at PI3K γ (p110γ) (Table 4 (PI3K α inhibitors)).
Take `CS(=O)(=O)N1CCN(C2CN(c3cnc4ccc(-c5ccc6oc(N)nc6c5)nc4n3)C2)CC1` [Compound 559]: the IC50 is under 0.1 µM on PI3K α (p110α/p85α) (Table 4 (PI3K α inhibitors)), over 10 µM at PI3K β (p110β/p85α) (Table 4 (PI3K α inhibitors)) and under 1 µM at PI3K γ (p110γ) (Table 4 (PI3K α inhibitors)).
For the molecule `Cc1ncc(-c2ccc3ncc(C(=O)N4CCOCC4)n3c2)c2cc[nH]c12` [Compound 536], the IC50 on PI3K β (p110β/p85α), at PI3K γ (p110γ) and at PI3K δ was over 10 µM throughout.
On to `CN1CCN([C@H]2CCN(c3cnc4ccc(-c5ccc6oc(N)nc6c5)cc4n3)C2)CC1` [Compound 381], for which the IC50 is under 0.1 µM on PI3K α (p110α/p85α), under 1 µM at PI3K β (p110β/p85α) and under 10 µM at PI3K γ (p110γ).
For the molecule `CCN(CC)c1cnc2ccc(-c3ccc4oc(N)nc4c3)nc2n1` [Compound 577], the results for the IC50 on PI3K α (p110α/p85α) (Table 4 (PI3K α inhibitors)), at PI3K β (p110β/p85α) (Table 4 (PI3K α inhibitors)) and on PI3K γ (p110γ) (Table 4 (PI3K α inhibitors)) were under 1 µM, over 10 µM and under 1 µM, respectively.
As for `Cc1ncc(-c2ccc3ncc(C(=O)N4C5CCC4COC5)n3c2)c2cn[nH]c12` [Compound 538], the values for the IC50 at PI3K α (p110α/p85α), on PI3K β (p110β/p85α) and on PI3K γ (p110γ) were under 0.1 µM, over 10 µM and over 10 µM, respectively.
For the molecule `CN1CCN(c2cnc3ccc(-c4ccc5oc(N)nc5c4)nc3c2)CC1` [Compound 575], the IC50 at PI3K α (p110α/p85α) (Table 4 (PI3K α inhibitors)) is under 0.1 µM; at PI3K β (p110β/p85α) (Table 4 (PI3K α inhibitors)), under 0.1 µM; at PI3K γ (p110γ) (Table 4 (PI3K α inhibitors)), under 1 µM.
Take `O=C(c1cnc2ccc(-c3cnc4cc[nH]c4c3)cn12)N1CCOCC1` [Compound 534]: the IC50 at PI3K β (p110β/p85α), on PI3K γ (p110γ) and at PI3K δ was over 10 µM each time.
`O=C(c1cnc2ccc(-c3cnc4[nH]ncc4c3)cn12)N1CCOCC1` [Compound 492]: the IC50 at PI3K β (p110β/p85α), on PI3K γ (p110γ) and on PI3K δ was under 10 µM throughout.
As to `O=C(c1cnc2ccc(-c3ccnc4[nH]ncc34)cn12)N1CCOCC1` [Compound 532], the IC50 at PI3K β (p110β/p85α), at PI3K γ (p110γ) and at PI3K δ was over 10 µM throughout.
Take `CC(C)N1CCN(c2cnc3ccc(-c4ccc5oc(N)nc5c4)nc3n2)CC1` [Compound 583]: the IC50 on PI3K α (p110α/p85α) (Table 4 (PI3K α inhibitors)) was under 0.1 µM; on PI3K β (p110β/p85α) (Table 4 (PI3K α inhibitors)), under 1 µM; on PI3K γ (p110γ) (Table 4 (PI3K α inhibitors)), under 1 µM.
Take `Cc1ncc(-c2ccc3ncc(C(=O)N4CCOCC4)n3c2)c2cn[nH]c12` [Compound 530]: the results for the 50% inhibitory concentration (IC50) on PI3K α (p110α/p85α), on PI3K β (p110β/p85α) and at PI3K γ (p110γ) were under 0.1 µM, over 10 µM and over 10 µM, respectively.
In the case of `CC(C)N1CCN(C2CN(c3cnc4ccc(-c5ccc6oc(N)nc6c5)nc4n3)C2)CC1` [Compound 628], the IC50 on PI3K β (p110β/p85α) (Table 4 (PI3K α inhibitors)), at PI3K γ (p110γ) (Table 4 (PI3K α inhibitors)) and at PI3K δ (Table 4 (PI3K α inhibitors)) was over 10 µM throughout.
